Columns and labels:
[1] = tested on: Streptomyces flaveolus pzbB (sfaC) deletion mutant; format: cell-based
Source text: FIG. 5 is a series of LC/MS spectra showing the detection of sanglifehrin, a Piz—containing compound produced by Streptomyces flaveolus. Four major isobaric isomers of sanglifehrin A detected in WT S. flaveolus fermentation extracts. As expected from the results above, an unmarked gene deletion of pzbB (sfaC) from S. flaveolus abrogates sanglifehrin production.
Data indicating L-Piz successfully penetrates at least one Piz-compound producing actinomycete was obtained, followed by subsequent incorporation into a Piz drug-like compound sanglifehrin (see e.g., FIG. 5). […] Four major isobaric isomers of sanglifehrin A detected in WT S. flaveolus fermentation extracts. As expected from the results in FIG. 5, an unmarked gene deletion of pzbB (sfaC) from S. flaveolus abrogates sanglifehrin production.

SfaC-His6 (PzbB) = assay: Hemin influence on SfaC (PzbB) N5-OH-L-ornithine in vitro assay, piperazic acid quantified by HPLC/MS; format: biochemical, Streptomyces flaveolus; settings: hemin 10 μM in DMSO vs DMSO alone; SfaC-His6 2 μM; N5-OH-L-orn 1 mM; 50 mM Tris.HCl pH 8.0; aliquots at 30, 60, 90 sec
SfaC-His6 (PzbB), sequence (as listed by the source): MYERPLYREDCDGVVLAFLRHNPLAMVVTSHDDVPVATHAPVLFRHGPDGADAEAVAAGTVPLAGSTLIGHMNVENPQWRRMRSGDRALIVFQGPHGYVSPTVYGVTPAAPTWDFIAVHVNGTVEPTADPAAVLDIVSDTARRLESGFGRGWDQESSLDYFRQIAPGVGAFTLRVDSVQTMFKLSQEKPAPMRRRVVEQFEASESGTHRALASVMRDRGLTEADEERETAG
Protocol: As expected for a bona fide cofactor, adding hemin increases the rate of turnover.
100 μL of reaction in 50 mM Tris.HCl at pH 8.0 was set up with N^5—OH-L-orn (1 mM), SfaC-His6 (2 μM), and either hemin in DMSO (10 μM) or just DMSO. The two reactions were incubated at […]. Then, 30 μL aliquots were removed at 30, 60, and 90 sec, and combined with 30 μL 6% 5-sulfosalicylic acid. The cloudy mixture was centrifuged, and the supernatant was used for analysis. Sample was analyzed for piperazic acid by HPLC/MS. Analysis was performed using an lmtakt Intrada Amino Acid column (50×3 mm, 3 μm pore size) installed on an Agilent 1260 Infinity HPLC connected to an Agilent 6420 Triple-Quad mass spectrometer using the following method: T=0, 86% B; T=3, 86% B; T=10, 0% B; T=11, 0% B; T=12, 86% B; T=14, 86% B; A: water+100 mM ammonium formate, B: acetonitrile+0.1% formic acid; 0.6 mL/min. An extracted ion count chromatogram at m/z 131.1 (monoisotopic mass of protonated piperazic acid) was used to detect piperazic acid. For quantification, an SRM transition (m/z 131.1=>56.3; source voltage, 86 V; collision energy, 37 V) was monitored, and a standard curve (second order polynomial, R2=0.9996) was generated between 0.1 μM and 100 μM using a chemically synthesized L-piperazic acid dihydrochloride standard. The concentrations in time were plotted, and fitted to a line. […]

Row | Molecule | toxicity (qualitative) ([1]; 50 μM exogenous L-Piz, S. flaveolus) | cell penetrance ([1]; inferred from restored sanglifehrin production with 50 μM exogenous L-Piz in S. flaveolus) | increase of the slope (rate of reaction, piperazic acid formation) by hemin (SfaC-His6 (PzbB)) [times]
1 | O=C(O)C1CCCNN1 [L-Piz, L-piperazic acid] | qualitatively nontoxic | cell penetrant | 
2 | Fe^+3-protoporphryin IX [Hemin] |  |  | 14.4

Reference: patent publication US12577597B2, “Transgenic microorganisms and synthesis of piperazic acid, piperazic acid containing products, and derivatives thereof” (Washington University, priority 2017, dated 2026)
